In PMC1082716, “Blockade of chemokine-induced signalling inhibits CCR5-dependent HIV infection in vitro without blocking gp120/CCR5 interaction” (Retrovirology, 2005):
Entries after “also recorded” stand apart in the source; their conditions may differ.

What was measured:
CXCR4 = biological target: T1, CXCR4 (Homo sapiens, UniProt P61073); assay: Specific binding of biotinylated gp120:V3(IIIb) peptide to Jurkat cells; conditions: 100 μM biotinylated gp120:V3(IIIb); various concentrations of inhibitor; 10^6 cells in 100 μl, 4°C; triplicate
T1 construct: CXCR4, which is expressed on both THP-1 and Jurkat cells, but at higher levels on the T-cell line; endogenous in cells; host or cells: Jurkat T-cells (whole cells, 10^6 per well, 4°C)

[1] = test system: RANTES-induced chemotaxis; assay: RANTES-/MIP1α-induced chemotaxis (ChemoTx transwell); type: cell-based; conditions: RANTES per text, 25 ng/ml MIP1α per Fig 2f legend; 5 × 10^4 cells per well; 2 h, 37°C; MTT; triplicate
Description: Figure 2 Effect of Peptide 3 on gp120:V3 loop peptide binding to cells. (a) The binding of 100 μM N-terminal biotinylated gp120:V3(IIIb) to THP-1 cells was measured in the presence of various concentrations of peptide 3. In each case, the non-specific binding (in the presence of 10 mM unlabelled gp120:V3 loop peptide) has been subtracted. (b) Chemotaxis in response to 100 ng/ml SDF1α was measured in the presence of various concentrations of peptide 3. […] (e) As for (a) except that the effect of Peptide 3 on the binding of gp120:V3(BaL) to THP-1 cells was determined. (f) As for (b) except that the effect of Peptide 3 on chemotaxis induced by 25 ng/ml MIP1α was determined. All binding reactions were performed with 10^6 cells in 100 μl of binding medium at 4°C. Chemotaxis assays were performed with 5 × 10^4 cells per well. Values are mean ± SEM of triplicate determinations.
Chemotaxis experiments were performed essentially as previously described, using the ChemoTx disposable 96-well transwell migration plates, with PVP-free membrane (6 μm pore size). […] The number of cells which had migrated to the lower compartment was determined using the vital dye MTT and interpolation of a standard curve. Each condition was determined in triplicate, and the number of cells migrating in the absence of chemoattractant was subtracted to determine the chemokine-dependent chemotaxis which was reported.

HIV strain MN = assay: HIV (MN) infection of THP-1 cells, p24gag immunofluorescence; type: cell-based, HIV-1; conditions: Peptide 3 100 μM
Description: However, it was possible to assess HIV infectivity of THP-1 cells using high sensitivity immunofluorescent detection of p24^gag. THP-1 cells were differentiated with hydrocortisone and PMA, then treated with TNFα, resulting in adherent monolayers on glass chamber slides. The THP-1 cells were then treated with either Peptide 3 (100 μM), MIP1α (100 ng/ml) or SDF1α (100 ng/ml) as for the Jurkat cells. THP-1 cells were infected with HIV strain MN at a concentration previously validated to produce easily detectable infection and grown for 72 h prior to fixation and staining for p24^gag. In contrast to the findings with HIV strain IIIb infection of Jurkat T cells, Peptide 3 inhibited infection of THP-1 cells by more than 80% (Fig 3c), very similar to the effect of MIP1α.
THP-1 cells were differentiated prior to infection with hydrocortisone and PMA in 8-well chamber slides. Sixteen hours prior to infection, TNFα was added (100 ng/ml). Twelve hours later, the medium was aspirated and replaced with fresh medium containing the test peptides or chemokines as appropriate. After a further four hours, virus from the frozen stocks was adeed to the cells, which were the processed for immunofluoresence between 28 h and 72 h after infection.
Jurkat cells following HIV infection were attached to 8-well chamber slides (Becton-Dickinson) by spinning the slides using a plate rotor in a Labofuge centrifuge (Heraeus) at 3,000 × g for 5 minutes. Attached Jurkat cells or THP-1 cells were then fixed by dipping the slides into ice-cold 70% ethanol for 90 seconds. Non-specific binding was blocked by incubation with 3% fatty acid-free BSA in TBS for 1 hour at room temprature. Cells were incubated with the mouse monoclonal anti-HIV-1 p24^gag antibody EH12E1 (ref 38;AIDS Reagent Program, NIBSC) at 10 μg/ml in 3% BSA in TBS at room temperature overnight. Unbound antibody was removed with 3 × 3 min washes in PBS, and bound antibody was then fixed to the slide by incubation with 3.8% phosphate buffered formalin pH7.2 for 10 mins at room temperature, followed by 3 further 3 min washes in PBS. Bound antibody was visualised using donkey anti-mouse IgG FITC conjugate (715-095-150; Jackson Immunoresearch) at 30 μg/ml in 3% BSA/TBS + 1 ng/ml Hoescht 33342 for 6 hours at room temperature. Twelve fields of view (100× magnification) were captured from each well of the chamber slide using an Olympus Provis AX electronic microscope connected to a Power Macintosh 8500, running OpenLab image analysis software (Improvision), under both FITC illumination conditions (NIBA filter block; λex = 470–490 nm, dichroic mirror = 505 nm, λem = 515–550 nm) and UV illumination conditions (Chroma 31000; λex = 340–380 nm, dichroic mirror = 400 nm, λem = 435–485 nm). Images were acquired with a Hamamatsu C4742-05 monochrome digital camera with 10-bit depth in a 1280-1024 pixel field connected to a DIG Snapper frame grabber. The exposure time, amplifier gain and offset values were controlled by the OpenLab software and were held constant throughout the experiment. A background (an image captured without a slide under the objective) was digitally subtracted from every image. A threshold was then applied to each image which was the lowest threhold that detected <1% of the pixels of an image of uninfected cells stained under identical conditions. The number of objects exceeding this threshold in each field of view were counted. […]

[2] = test system: chemokine receptor internalisation; conditions: ref [27]; cited from earlier work
Description: Since BSCIs, such as Peptide 3, ...

T1 sequence (P61073 whole entry): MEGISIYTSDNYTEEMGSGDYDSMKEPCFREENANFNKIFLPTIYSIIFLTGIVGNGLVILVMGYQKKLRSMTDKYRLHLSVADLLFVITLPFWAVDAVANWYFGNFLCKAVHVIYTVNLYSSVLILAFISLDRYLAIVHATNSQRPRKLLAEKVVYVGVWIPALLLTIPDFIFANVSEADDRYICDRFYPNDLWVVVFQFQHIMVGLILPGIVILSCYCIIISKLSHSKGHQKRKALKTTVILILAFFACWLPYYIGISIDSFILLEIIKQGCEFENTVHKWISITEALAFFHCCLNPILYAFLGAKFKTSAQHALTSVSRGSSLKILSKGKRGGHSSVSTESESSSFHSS

For EICADPKQKWVQ [Peptide 3], which “Effect on binding of gp120:V3(IIIb) to Jurkat cells” value (CXCR4) is on record?
The value was “no effect”.

And the “Effect on RANTES-induced chemotaxis” value [1]?
Its value is “powerfully inhibited; also recorded: profoundly blocked”.

And the “Effect on HIV infection of THP-1 cells (in words)” value (HIV strain MN; HIV strain MN, MIP1α 100 ng/ml, SDF1α 100 ng/ml, 72 h, p24gag immunofluorescence)?
Its value is “powerfully inhibited; also recorded: blocked”.

And the “Inhibition of infection of THP-1 cells (p24gag)” value (HIV strain MN; HIV strain MN, differentiated THP-1 (hydrocortisone, PMA, TNFα), grown for 72 h prior to fixation, 12 fields of view)?
The value was “more than 80%”.

What about the “Inhibition of CCR5 mediated HIV infection of THP-1 cells” value (HIV strain MN; assayed by immunofluoresence staining, HIV MN, 72 h, p24gag) of the same sequence?
The value was 83 ± 7%.

And the “Effect on chemokine receptor internalisation induced by ligand binding” value [2]?
The value was “do not block”.
